In patent US8242166B2, “C(10) ethyl ester and C(10) cyclopropyl ester substituted taxanes” (Florida State University Research Foundation, Inc., priority 2008, dated 2012):
Like-named read-outs stand apart in the source and are kept apart here.

Columns and labels:
[1] = system: PANC-1; assay: MTT cytotoxicity (IC50), PANC-1; format: cell-based; details: Homo sapiens, 72 h, read-out: IN Vitro IC50 (nm) Panc
Experimental: (§1) Compound 17932 was tested in four of these cell lines, while the remaining compounds were tested in all of these cell lines. All cell lines were maintained in RPMI-1640 tissue culture medium (TCM, supplemented with antibiotics and 10% fetal bovine serum) and cultured at 37° C. in humidified air containing 5% CO2. To assess the antiproliferative effects of the test compounds, 172 μL of tumor cell suspension (1.45×10^4 cells/ml) were added to each well of a 96-well plate and incubated for 24 h at 37° C. in 5% CO2 in air to allow cells to adhere. Seven 2-fold drug dilutions in TCM/DMSO were performed in triplicate in separate 96-well plates and 28 μL was transferred to the wells containing tumor cells (200 μL final volume/0.1% DMSO). Plates were incubated for 72 h and cell viability was determined by adding 50 μL of warm TCM containing 5 mg/mL MTT (3-[4,5-dimethylthiazol-2-yl]-2,5-diphenyltetrazolium bromide) to each well and incubating for 1 h at 37° C. Plates were processed and the absorbances of the resulting solutions were measured by a plate reader at 570 nm. […] (GraphPad Prism version 4.00 for Windows). Studies were conducted by Taxolog, Inc., Tallahassee, Fla.

[2] = system: HT29 human tumor xenografts; assay: HT29 xenograft study e139 (Example 23); format: in vivo, nude mice
[3] = system: HT29; assay: MTT cytotoxicity (IC50), HT29; format: cell-based; details: Homo sapiens, HT-29, 72 h, read-out: IN Vitro IC50 (nm) HT29
Experimental: as §1

[4] = system: HCT116; assay: MTT cytotoxicity (IC50), HCT116; format: cell-based; details: Homo sapiens, HCT-116, 72 h, read-out: IN Vitro IC50 (nm) HCT116
Experimental: as §1, with “All” for “Compound 17932 was tested in four of these cell lines, while the remaining compounds were tested in all of these cell lines. All”

[5] = system: DLD-1; assay: MTT cytotoxicity (IC50), DLD-1; format: cell-based; details: Homo sapiens
Experimental: as §1

[6] = system: SK-MEL-28; assay: MTT cytotoxicity (IC50), SK-MEL-28; format: cell-based; details: Homo sapiens, 72 h, read-out: IN Vitro IC50 (nm) ske-mel28
Experimental: as §1

[7] = system: human HT29 colon carcinoma xenografts
[8] = system: 786-0; assay: MTT cytotoxicity (IC50), 786-0; format: cell-based; details: Homo sapiens
Experimental: as §1

[9] = system: SNB-19; assay: MTT cytotoxicity (IC50), SNB-19; format: cell-based; details: Homo sapiens, 72 h, read-out: IN Vitro IC50 (nm) SNB19
Experimental: as §1

[10] = system: A375; assay: MTT cytotoxicity (IC50), A375; format: cell-based; details: Homo sapiens, A-375
Experimental: as §1

[11] = system: MALME-3; assay: MTT cytotoxicity (IC50), MALME-3; format: cell-based; details: Homo sapiens, 72 h, read-out: IN Vitro IC50 (nm) Malme3
Experimental: as §1

[12] = system: HOP-18; assay: MTT cytotoxicity (IC50), HOP-18; format: cell-based; details: Homo sapiens, 72 h, read-out: IN Vitro IC50 (nm) HOP18
Experimental: as §1

[13] = system: TK-10; assay: MTT cytotoxicity (IC50), TK-10; format: cell-based; details: Homo sapiens, 72 h, read-out: IN Vitro IC50 (nm) TK10
Experimental: as §1

[14] = system: OVCAR4; assay: MTT cytotoxicity (IC50), OVCAR4; format: cell-based; details: Homo sapiens, OVCAR-4, 72 h, read-out: IN Vitro IC50 (nm) OVCAR4
Experimental: as §1

[15] = system: A549; assay: MTT cytotoxicity (IC50), A549; format: cell-based; details: Homo sapiens, 72 h, read-out: IN Vitro IC50 (nm) A549
Experimental: as §1

[16] = MTT, 72 h, read-out: IN Vitro IC50 (nm) DLD1
[17] = Resistance MDR1+, read-out: DLD1 Colon (Table 4, quantity not named; IC50 values as Table 2)

**Q.** For `CC(=O)O[C@@]12CO[C@@H]1C[C@H](O)[C@@]1(C)C(=O)[C@H](OC(=O)C3CC3)C3=C(C)[C@@H](OC(=O)[C@H](O)[C@@H](NC(=O)OC4CCCC4)c4cccs4)C[C@@](O)([C@@H](OC(=O)c4ccccc4)C12)C3(C)C` (stereo partly shown) [Compound 17932], which IC50 [1] is on record?
**A.** The IC50 was 1.2 nM.

**Q.** What about the “MTV (Day 61)” value ([2]; 20 mg/kg i.v. q4d×4) of the same molecule?
**A.** Its value is 78 mm^3.

**Q.** What about the PR responses ([2]; 20 mg/kg i.v. q4d×4, six mice) of the same molecule?
**A.** The PR responses was 5.

**Q.** And the “Day 51 mm^3 (tumor size)” value ([2]; 20 mg/kg iv q4d × 4)?
**A.** The value was 99.7 mm^3.

**Q.** What about the “Day 54 mm^3 (tumor size)” value ([2]; 20 mg/kg iv q4d × 4) of the same molecule?
**A.** The value was 109.4 mm^3.

**Q.** And the “Max. BW Loss %; Day” value ([2]; 20 mg/kg iv q4d × 4)?
**A.** The value was −19.3%; Day 16.

**Q.** What about the “Number of Death NTR” value ([2]; 20 mg/kg iv q4d × 4, N=6) of the same molecule?
**A.** The value was 0.

**Q.** And the “Number of Death TR” value ([2]; 20 mg/kg iv q4d × 4, N=6)?
**A.** Its value is 0.

**Q.** And the IC50 [3]?
**A.** Its IC50 is 0.9 nM.

**Q.** What about the IC50 [4] of the same molecule?
**A.** The IC50 was 0.6 nM.

**Q.** What about the IC50 [5, 16] of the same molecule?
**A.** The IC50 was 1.4 nM.

**Q.** What about the IC50 [5, 17] of the same molecule?
**A.** Its IC50 is 1.4 nM.

**Q.** `CC(=O)O[C@H]1C(=O)[C@@]2(C)[C@H]([C@H](OC(=O)c3ccccc3)[C@]3(O)C[C@H](OC(=O)[C@H](O)[C@@H](NC(=O)c4ccccc4)c4ccccc4)C(C)=C1C3(C)C)[C@]1(OC(C)=O)CO[C@@H]1C[C@@H]2O` [Paclitaxel, paclitaxel, reference compound] was tested. Which IC50 [6] did it give?
**A.** The IC50 was 5.4 nM.

**Q.** What about the IC50 [1] of the same molecule?
**A.** The IC50 was 4.1 nM.

**Q.** What about the “antitumor activity” value ([7]; 30 mg/kg q4d×4) of the same molecule?
**A.** Its value is “relatively weak activity”.

**Q.** What about the “D 38 TTE” value ([7]; mouse, in vivo) of the same molecule?
**A.** The value was 27.5 ± 1.9 (6) days.

**Q.** And the “Number of Death NTR” value ([7]; mouse, in vivo)?
**A.** The value was 0.

**Q.** And the “Number of Death TR” value ([7]; mouse, in vivo)?
**A.** The value was 0.

**Q.** What about the IC50 ([8]; MTT, 72 h, read-out: IN Vitro IC50 (nm) 786-0) of the same molecule?
**A.** The IC50 was greater than 10 nM.

**Q.** What about the IC50 ([8]; Resistance MDR1+, read-out: 786-0 Renal (Table 4, quantity not named; IC50 values as Table 2)) of the same molecule?
**A.** Its IC50 is greater than 10 nM.

**Q.** And the IC50 [9]?
**A.** Its IC50 is 6.1 nM.

**Q.** And the IC50 ([10]; MTT, 72 h, read-out: IN Vitro IC50 (nm) A375)?
**A.** The IC50 was 8 nM.

**Q.** What about the IC50 ([10]; Resistance MRP9, read-out: A375 Melanoma (Table 4, quantity not named; IC50 values as Table 2)) of the same molecule?
**A.** The IC50 was 8 nM.

**Q.** And the IC50 [11]?
**A.** The IC50 was 6.5 nM.

**Q.** And the IC50 [12]?
**A.** Its IC50 is 7.2 nM.

**Q.** What about the IC50 [13] of the same molecule?
**A.** The IC50 was 4.8 nM.

**Q.** And the IC50 [14]?
**A.** Its IC50 is 2.9 nM.

**Q.** And the IC50 [3]?
**A.** The IC50 was 2.8 nM.

**Q.** And the IC50 [15]?
**A.** The IC50 was 3.8 nM.

**Q.** What about the IC50 [5, 16] of the same molecule?
**A.** Its IC50 is greater than 10 nM.

**Q.** What about the IC50 [5, 17] of the same molecule?
**A.** Its IC50 is 41 nM.
